Laboratory results taken from PubChem BioAssay (NCI).
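The compound was tested at five concentrations on cells cultured in 96-well plates, with a 48-hour exposure period. GI50 = concentration required for 50% inhibition of growth. The concentration for full growth arrest is given as TGI.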

How the values were obtained:
Experiment in all cases: NCI tumour cell line growth inhibition, 48 h
UACC-62 melanoma = system: UACC-62 melanoma
HS 578T breast = system: HS 578T breast
UO-31 renal = system: UO-31 renal
HOP-92 NSCLC = system: HOP-92 NSCLC
NCI-H226 lung = system: NCI-H226 lung
PC-3 prostate = system: PC-3 prostate
NCI-H23 lung = system: NCI-H23 lung
SF-268 CNS = system: SF-268 CNS
SK-MEL-28 melanoma = system: SK-MEL-28 melanoma
MOLT-4 leukemia = system: MOLT-4 leukemia
HL-60(TB) leukemia = system: HL-60(TB) leukemia
HOP-62 NSCLC = system: HOP-62 NSCLC
CCRF-CEM leukemia = system: CCRF-CEM leukemia
RPMI-8226 leukemia = system: RPMI-8226 leukemia
SK-MEL-5 melanoma = system: SK-MEL-5 melanoma
SNB-19 CNS = system: SNB-19 CNS
NCI/ADR-RES ovarian = system: NCI/ADR-RES ovarian
NCI-H460 lung = system: NCI-H460 lung
EKVX NSCLC = system: EKVX NSCLC
SF-539 CNS = system: SF-539 CNS
A498 renal = system: A498 renal
HT29 colon = system: HT29 colon
M14 melanoma = system: M14 melanoma
BT-549 breast = system: BT-549 breast
SK-MEL-2 melanoma = system: SK-MEL-2 melanoma
ACHN renal = system: ACHN renal
TK-10 renal = system: TK-10 renal
CAKI-1 renal = system: CAKI-1 renal
MCF7 breast = system: MCF7 breast

## O=C(NNc1nc2cc(F)ccc2n2c(CN3CC4(COC4)C3)ccc12)c1cnccn1
UACC-62 melanoma
  GI50: 406 nM
  TGI: 1960 nM
HS 578T breast
  GI50: 3040 nM
  TGI: > 95200 nM
UO-31 renal
  GI50: 114 nM
  TGI: 5710 nM
HOP-92 NSCLC
  GI50: 983 nM
  TGI: 23300 nM
NCI-H226 lung
  GI50: 1050 nM
  TGI: 10800 nM
PC-3 prostate
  GI50: 719 nM
  TGI: 31400 nM
NCI-H23 lung
  GI50: 1780 nM
  TGI: 41800 nM
SF-268 CNS
  GI50: 616 nM
  TGI: > 100000 nM
SK-MEL-28 melanoma
  GI50: 861 nM
  TGI: 25100 nM
MOLT-4 leukemia
  GI50: 443 nM
  TGI: > 75600 nM
HL-60(TB) leukemia
  GI50: 469 nM
  TGI: 12900 nM
HOP-62 NSCLC
  GI50: 442 nM
  TGI: 22100 nM
CCRF-CEM leukemia
  GI50: 281 nM
  TGI: > 70400 nM
RPMI-8226 leukemia
  GI50: 689 nM
  TGI: 28100 nM
SK-MEL-5 melanoma
  GI50: 673 nM
  TGI: 5330 nM
SNB-19 CNS
  GI50: 854 nM
  TGI: > 100000 nM
NCI/ADR-RES ovarian
  GI50: 386 nM
  TGI: 9970 nM
NCI-H460 lung
  GI50: 259 nM
  TGI: 11600 nM
EKVX NSCLC
  GI50: 438 nM
  TGI: 30000 nM
SF-539 CNS
  GI50: 675 nM
  TGI: 8970 nM
A498 renal
  GI50: 16700 nM
  TGI: 34000 nM
HT29 colon
  GI50: 499 nM
  TGI: 16800 nM
M14 melanoma
  GI50: 451 nM
  TGI: 3530 nM
BT-549 breast
  GI50: 907 nM
  TGI: 9220 nM
SK-MEL-2 melanoma
  GI50: 2190 nM
  TGI: 14700 nM
ACHN renal
  GI50: 233 nM
  TGI: 11700 nM
TK-10 renal
  GI50: 263 nM
  TGI: 23200 nM
CAKI-1 renal
  GI50: 330 nM
  TGI: 13200 nM
MCF7 breast
  GI50: 596 nM
  TGI: 9810 nM
